Results as given in patent US6812229B1, “Carbamate derivative and agricultural/horticultural fungicide” (Kumiai Chemical Industry Co., Ltd., priority 1999, dated 2004).

The compounds below were run on Septoria nodorum (assay: Test for preventive effect on Septoria leaf blotch of wheat). Settings: wheat seedlings (Norin-61-go), two-leaf stage, 50 ppm active ingredient, 10 ml per pot, evaluated 10 days after inoculation with Septoria nodorum.
Type: in vivo
Text: [table] 10 Wheat seeds (variety: Norin-61-go) were sown in each plastic pot having a diameter of 6 cm, and grown in a greenhouse. […] Then, the seedlings were inoculated with Septoria nodorum […] controlled in a greenhouse. 10 Days after the inoculation, the total diseased area of the first leaves in each pot was observed and evaluated on the basis of the standards shown in Table 21.

SMILES | Evaluation (total diseased area of the first leaves)
CCC(=NOCc1ccccc1)c1ccc(Cl)c(CNC(=O)OC)c1 [A-303] | A (No diseased area)
COC(=O)NCc1cc(C(C)=NOCc2ccc(C)cn2)ccc1Cl [A-334] | A (No diseased area)
COC(=O)NCc1cc(C(C)=NOCc2ccccn2)ccc1F [A-330] | B (Diseased area of less than 5%)
COC(=O)NCc1cc(C(C)=NOCc2cc(C)ccc2C)ccc1Cl [A-258] | B (Diseased area of less than 5%)
COC(=O)NCc1cc(C(C)=NOCc2ccccc2F)ccc1F [A-324] | A (No diseased area)
COC(=O)NCc1cc(C(C)=NOCc2ccccn2)ccc1C [A-333] | A (No diseased area)
COC(=O)NCc1cc(C(C)=NOCc2ccc(OC)cc2)ccc1Cl [A-95] | A (No diseased area)
COC(=O)NCc1cc(C(C)=NOCc2ccccc2Cl)cc(C)c1C [A-358] | A (No diseased area)
COC(=O)NCc1cc(C(C)=NOCc2cccc(OC)c2)ccc1C [A-315] | A (No diseased area)
COC(=O)NCc1cc(C(C#N)=NOCc2ccccc2)ccc1C [A-20] | B (Diseased area of less than 5%)
COC(=O)NCc1cc(C(C)=NOC(C)c2cccc(OC)c2)ccc1Cl (stereo not drawn) [A-312] | A (No diseased area)
COC(=O)NCc1cc(C(C)=NOC(C)c2ccc(Cl)cc2)ccc1Cl (stereo not drawn) [A-311] | A (No diseased area)
COC(=O)NCc1cc(C(C)=NOCc2ccccc2C)ccc1C [A-295] | B (Diseased area of less than 5%)
CCC(=NOCc1ccccn1)c1ccc(Cl)c(CNC(=O)OC)c1 [A-305] | A (No diseased area)
COC(=O)NCc1cc(C(C)=NOCC(=O)c2ccc(Cl)cc2)ccc1Cl [A-403] | A (No diseased area)
COC(=O)NCc1cc(C(C)=NOCc2cccc(C)n2)ccc1F [A-430] | A (No diseased area)
COC(=O)NCc1cc(C(C)=NOC(C)c2ccc(Cl)cc2)ccc1F (stereo not drawn) [A-380] | A (No diseased area)
COC(=O)NCc1cc(C(C)=NOCc2ccccc2[N+](=O)[O-])ccc1Cl [A-414] | A (No diseased area)
COC(=O)NCc1cc(C(C)=NOCc2ccccc2Cl)ccc1F [A-325] | A (No diseased area)
COC(=O)NCc1cc(C(C)=NOC(C)c2cccc(C(F)(F)F)c2)ccc1Cl (stereo not drawn) [A-313] | A (No diseased area)
COC(=O)NCc1cccc(C(C)=NOCc2ccc(F)cc2)c1 [A-400] | B (Diseased area of less than 5%)
COC(=O)NCc1cc(C(=NOCc2ccccc2C)C2CC2)ccc1Cl [A-359] | B (Diseased area of less than 5%)
COC(=O)NCc1cc(C(C)=NOCc2ccccc2Br)ccc1F [A-326] | A (No diseased area)
COC(=O)NCc1cc(C(C)=NOC(C)c2cccc(C)c2)ccc1Cl (stereo not drawn) [A-407] | A (No diseased area)

SMILES | Evaluation (total diseased area of the first leaves)
COC(=O)NCc1cc(C(C)=NOCc2cc(Cl)ccc2Cl)ccc1Cl [A-254] | A (No diseased area)
COC(=O)NCc1cc(C(C)=NOCc2ccc(C(C)=O)o2)ccc1Cl [A-410] | A (No diseased area)
COC(=O)NCc1cccc(C(C)=NOCc2cc(Cl)ccc2Cl)c1 [A-388] | A (No diseased area)
COC(=O)NCc1cc(C(C)=NOCc2cc(Cl)cc(Cl)c2)ccc1Cl [A-257] | A (No diseased area)
COC(=O)NCc1cc(C(C)=NOCc2cccc(OC)c2)ccc1F [A-329] | A (No diseased area)
COC(=O)NCc1cc(C(C)=NOCc2ccccc2OC)ccc1Cl [A-93] | A (No diseased area)
COC(=O)NCc1cc(C(C)=NOCc2nc(C)cc(C)n2)ccc1Cl [A-413] | A (No diseased area)
COC(=O)NCc1cccc(C(C)=NOCc2ccc(C)cc2)c1 [A-345] | B (Diseased area of less than 5%)
COC(=O)NCc1cc(C(C)=NOCC2CC2)ccc1Cl [A-56] | B (Diseased area of less than 5%)
COC(=O)NCc1cc(C(C)=NOCc2ccc(Cl)cc2)ccc1C [A-365] | B (Diseased area of less than 5%)
COC(=O)NCc1cc(C(C)=NOCCc2ccccc2)ccc1C [A-369] | A (No diseased area)
COC(=O)NCc1cc(C(C)=NOC(C)c2ccccc2Cl)ccc1F (stereo not drawn) [A-378] | A (No diseased area)
COC(=O)NCc1cc(C(C)=NOCc2ccc3ccccc3n2)ccc1Cl [A-431] | A (No diseased area)
COC(=O)NCc1cccc(C(C)=NOCc2c(Cl)cccc2Cl)c1 [A-389] | A (No diseased area)
COC(=O)NCc1cc(C=NOCc2ccc(Cl)cc2)ccc1Cl [A-438] | B (Diseased area of less than 5%)
COC(=O)NCc1cc(C(C)=NOCc2nc(C(F)(F)F)cs2)ccc1Cl [A-432] | A (No diseased area)
COC(=O)NCc1cc(C(C)=NOCc2cccnc2C#N)ccc1Cl [A-397] | A (No diseased area)
CCCCON=C(C)c1ccc(Cl)c(CNC(=O)OC)c1 [A-52] | A (No diseased area)
COC(=O)NCc1cc(C(C#N)=NOCc2ccccc2Cl)ccc1C [A-21] | A (No diseased area)
CCC(=NOCC(C)=NOC)c1ccc(Cl)c(CNC(=O)OC)c1 [A-293] | A (No diseased area)
COC(=O)NCc1cc(C(C)=NOCc2ccccc2C(F)(F)F)ccc1F [A-328] | A (No diseased area)
COC(=O)NCc1cc(C(C)=NOCC=C(Cl)Cl)ccc1Cl [A-185] | A (No diseased area)
COC(=O)NCc1cc(C(C)=NOCc2ccccn2)cc(C)c1Cl [A-355] | B (Diseased area of less than 5%)
COC(=O)NCc1cc(C(C#N)=NOCc2ccccc2Cl)ccc1Cl [A-8] | B (Diseased area of less than 5%)

SMILES | Evaluation (total diseased area of the first leaves)
COC(=O)NCc1cc(C(C)=NOC(C)c2cccc(Cl)c2)ccc1Cl (stereo not drawn) [A-310] | A (No diseased area)
COC(=O)NCc1cccc(C(C)=NOCc2cccc(C)c2)c1 [A-344] | A (No diseased area)
COC(=O)NCc1cc(C(C)=NOCc2cccc(C)[n+]2[O-])ccc1Cl [A-433] | B (Diseased area of less than 5%)
COC(=O)NCc1cc(C(C)=NOCc2cccc(C)c2)ccc1F [A-373] | A (No diseased area)
COC(=O)NCc1cc(C(C)=NOCc2ccccc2C)ccc1F [A-327] | A (No diseased area)
COC(=O)NCc1cc(C(C)=NOCc2cc(C)ccn2)ccc1Cl [A-370] | A (No diseased area)
COC(=O)NCc1cc(C(C)=NOCc2cc(C)cc(C)c2)ccc1Cl [A-279] | B (Diseased area of less than 5%)
COC(=O)NCc1cc(C(C)=NOCc2cccc(C(F)(F)F)c2)ccc1F [A-375] | B (Diseased area of less than 5%)
CCC(=NOCc1ccccc1Cl)c1ccc(Cl)c(CNC(=O)OC)c1 [A-296] | A (No diseased area)
C=CCCON=C(C)c1ccc(Cl)c(CNC(=O)OC)c1 [A-198] | A (No diseased area)
COC(=O)NCc1cc(C(C)=NOCc2cccc(Cl)c2)ccc1C [A-364] | A (No diseased area)
COC(=O)NCc1cc(C(C#N)=NOCCc2ccccc2)ccc1Cl [A-277] | B (Diseased area of less than 5%)
COC(=O)NCc1cc(C(C)=NOCc2ccccc2)ccc1Cl [A-206] | B (Diseased area of less than 5%)
COC(=O)NCc1cc(C(C)=NOCc2ccc(Cl)cc2)ccc1F [A-372] | A (No diseased area)
COC(=O)NCc1cc(C(C)=NOCc2ccc3ccccc3n2)ccc1F [A-440] | B (Diseased area of less than 5%)
COC(=O)NCc1cc(C(C)=NOCc2ccc(C(F)(F)F)cc2)ccc1F [A-376] | B (Diseased area of less than 5%)
COC(=O)NCc1cc(C(C)=NOCc2ccccc2C#N)ccc1F [A-377] | A (No diseased area)
COC(=O)NCc1cc(C(C)=NOCc2cccc(OC)n2)ccc1Cl [A-417] | A (No diseased area)
COC(=O)NCc1cccc(C(C)=NOCc2ccc(Cl)cc2)c1 [A-340] | B (Diseased area of less than 5%)
CON=C(C)C(ON=C(C)c1ccc(Cl)c(CNC(=O)OC)c1)C(C)=NOC (stereo not drawn) [A-412] | A (No diseased area)
COC(=O)NCc1cc(C(C)=NOCc2ccccc2)ccc1F [A-323] | A (No diseased area)
COC(=O)NCc1cc(C(C)=NOCc2cccc([N+](=O)[O-])c2)ccc1Cl [A-266] | B (Diseased area of less than 5%)
COC(=O)NCc1cccc(C(C)=NOCc2ccccc2Cl)c1 [A-338] | A (No diseased area)
CCOc1cccc(CON=C(C)c2ccc(Cl)c(CNC(=O)OC)c2)n1 [A-418] | A (No diseased area)
